{"source": "patent US8658638B2", "about": "“Mineralocorticoid receptor antagonist and methods of use” (priority 2009, dated 2014)", "target": "T1, human glucocorticoid receptor (GR) (Homo sapiens, UniProt P04150)", "T1 construct": "expressed in transfected cells; host or cells: HEK293", "T1 sequence (P04150 1-777)": "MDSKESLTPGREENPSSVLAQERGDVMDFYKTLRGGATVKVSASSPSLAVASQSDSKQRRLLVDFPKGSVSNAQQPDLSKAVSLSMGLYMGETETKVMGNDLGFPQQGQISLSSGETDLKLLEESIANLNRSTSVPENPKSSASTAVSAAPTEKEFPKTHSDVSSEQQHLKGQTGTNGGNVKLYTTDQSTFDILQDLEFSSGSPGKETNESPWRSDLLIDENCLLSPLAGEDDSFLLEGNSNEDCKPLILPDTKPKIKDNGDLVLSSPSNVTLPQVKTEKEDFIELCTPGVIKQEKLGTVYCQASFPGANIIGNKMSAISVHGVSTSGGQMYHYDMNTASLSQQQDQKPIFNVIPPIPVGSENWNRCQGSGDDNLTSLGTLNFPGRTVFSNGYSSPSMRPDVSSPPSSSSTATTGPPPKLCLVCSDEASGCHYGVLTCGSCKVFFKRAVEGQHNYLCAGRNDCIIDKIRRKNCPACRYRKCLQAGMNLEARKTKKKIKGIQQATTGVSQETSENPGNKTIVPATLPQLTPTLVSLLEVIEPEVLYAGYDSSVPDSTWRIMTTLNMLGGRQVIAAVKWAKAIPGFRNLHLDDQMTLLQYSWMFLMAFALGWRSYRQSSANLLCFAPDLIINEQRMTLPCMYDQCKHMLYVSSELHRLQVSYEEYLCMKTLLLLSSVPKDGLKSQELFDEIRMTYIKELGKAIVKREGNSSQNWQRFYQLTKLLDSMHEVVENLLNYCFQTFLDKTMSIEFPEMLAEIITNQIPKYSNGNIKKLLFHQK", "experiment": "Nuclear hormone receptor panel screen (luciferase reporter, HEK293), GR", "type": "cell-based", "description": "Aldosterone exerts it physiological effects through interaction with the mineralocorticoid receptor. Following cytoplasmic binding of aldosterone to MR, the ligand receptor complex translocates to the cell nucleus where it binds to hormone response elements on DNA to initiate expression of target genes. […] The solvents, reagents, and ligands employed in the functional assay are readily available from commercial sources, or can be prepared by one of ordinary skill in the art.\nHuman embryonic kidney HEK293 cells are transfected with steroid hormone receptor and reporter gene plasmids using a suitable transfection reagent such as Fugene™. […] After 24 hours incubation with test compounds, cells are lysed and luciferase activity is determined using standard techniques.\nData are fitted to a four parameter-fit logistic curve to determine EC50 values. […] IC50 values are determined similarly using antagonist mode assay data. In the antagonist mode, percent inhibitions are determined by comparing test compound activity in the presence of low concentration of agonist (0.08 nM aldosterone for MR, 0.25 nM dexamethasone for GR, 0.66 nM of methyltrienolone for AR, and 0.08 nM of promegestone for PR) to the response produced by the same low concentration of agonist in the absence of test compound.", "note": "pEC50, pIC50: −log10 of the molar value."}
{"smiles": "O=c1[nH]c2cc(/C=C3\\c4ccccc4COc4cc(F)ccc43)ccc2n1[C@@H]1C[C@@H]2COCCN2C1", "note": "[Compound (I), 5-((E)-(3-fluorodibenzo[b,e]oxepin-11(6H)-ylidene)methyl)-1-((7R,8aR)-hexahydro-1H-pyrrolo[2,1-c][1,4]oxazin-7-yl)-1H-benzo[d]imidazol-2(3H)-one]", "values": [{"measurement": "pEC50", "setting": "agonist mode", "result": "< 5.00"}, {"measurement": "pIC50", "setting": "antagonist mode, 0.25 nM dexamethasone", "result": "< 5.00"}]}
